Assay [1] relates to pathogens of clinical samples. The experiment in a line: Molecular phenotypic antimicrobial susceptibility test of clinical samples, extraction DNA purification step prior to PCR (Table 6). Type of assay: cell-based. The gist of the method:
(§1)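 For direct PCR, exposed cultures are lysed in buffer in the thermal cycler, whereas purified runs first isolate DNA with magnetic beads. Pathogen-specific or universal targets are amplified semi-quantitatively after 12-16 h of antimicrobial exposure in Mueller Hinton Broth.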

The subject of the next assay is E. coli. The experiment in a line: Molecular phenotypic antimicrobial susceptibility test, specimen with two detected pathogens incubated together without isolation. Format: cell-based, Escherichia coli. The settings on record: E. coli in specimen with two detected pathogens (E. coli and M. morganii) incubated together. The gist of the method:
(§2)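 Susceptibility read molecularly: growth means resistance, prevented growth sensitivity, versus antibiotic-free control wells. Co-detected pathogens stay together without isolation; after 4-6 h preincubation and PCR identification (threshold >10,000 cells/mL), inoculum adjusted to 0.5 McFarland and placed on thawed plates with each drug at its breakpoint concentration(s).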

The next assay relates to M. morganii. The description is as above. Format: cell-based, Morganella morganii. The settings on record: M. morganii in specimen with two detected pathogens (E. coli and M. morganii) incubated together. The gist of the method: as §2
Another assay concerns S. aureus. The experiment in a line: Molecular phenotypic antimicrobial susceptibility test with direct PCR (no extraction DNA purification step). Format: cell-based, Staphylococcus aureus. The settings on record: S. aureus isolate NR-46412 HIP13170, at sensitive breakpoint. The gist of the method: as §1

Consider Gentamicin, for which the “Molecular Antibiotic Susceptibility Result” value in assay [1] (E. coli, clinical sample of r10-r24) is given as “Sensitive (Antimicrobial wells with pathogen load detected below the control wells (typically >2 cycle thresholds later) may be reported as Sensitive)”; in assay [1] (E. coli, clinical sample of r158-r172), “Sensitive (Antimicrobial wells with pathogen load detected below the control wells (typically >2 cycle thresholds later) may be reported as Sensitive)”; in assay [1] (K. aerogenes, clinical sample of r136-r150), “Sensitive (Antimicrobial wells with pathogen load detected below the control wells (typically >2 cycle thresholds later) may be reported as Sensitive)”; in assay [1] (K. pneumoniae, clinical sample of r121-r135), “Sensitive (Antimicrobial wells with pathogen load detected below the control wells (typically >2 cycle thresholds later) may be reported as Sensitive)”; in assay [1] (M. morganii, clinical sample of r55-r69) it was “Sensitive (Antimicrobial wells with pathogen load detected below the control wells (typically >2 cycle thresholds later) may be reported as Sensitive)”; in assay [1] (M. morganii, clinical sample of r70-r84), “Sensitive (Antimicrobial wells with pathogen load detected below the control wells (typically >2 cycle thresholds later) may be reported as Sensitive)”. In addition, the “Molecular Antibiotic Susceptibility Result” value in assay [1] (P. mirabilis, clinical sample of r25-r39) is on record as “Sensitive (Antimicrobial wells with pathogen load detected below the control wells (typically >2 cycle thresholds later) may be reported as Sensitive)”; in assay [1] (P. mirabilis, clinical sample of r40-r54) it was “Sensitive (Antimicrobial wells with pathogen load detected below the control wells (typically >2 cycle thresholds later) may be reported as Sensitive)”; in assay [1] (S. aureus, clinical sample of r85-r92), “Sensitive (Antimicrobial wells with pathogen load detected below the control wells (typically >2 cycle thresholds later) may be reported as Sensitive)”. The Ct in assay [1] (E. coli, clinical sample of r10-r24, Ct Control Avg 18.112) is 28.366; in assay [1] (E. coli, clinical sample of r158-r172, Ct Control Avg 20.146), 32.759; in assay [1] (K. aerogenes, clinical sample of r136-r150, Ct Control Avg 19.994), 36.1; in assay [1] (K. pneumoniae, clinical sample of r121-r135, Ct Control Avg 24.272) it was 44.195; in assay [1] (M. morganii, clinical sample of r55-r69, Ct Control Avg 28.86), “Undet”; in assay [1] (M. morganii, clinical sample of r70-r84, Ct Control Avg 27.053) it was “Undet”. In addition, the Ct in assay [1] (P. mirabilis, clinical sample of r25-r39, Ct Control Avg 26.064) is on record as 28.953; in assay [1] (P. mirabilis, clinical sample of r40-r54, Ct Control Avg 26.987), 37.234; in assay [1] (S. aureus, clinical sample of r85-r92, Ct Control Avg 24.32) it was “Undet”. The “Ct of Sensitive Breakpoint” value with E. coli (Ct of controls (average) 15.93) amounted to 17.37; in the assay on M. morganii (Ct of controls (average) 19.99), 30.09. For the same substance, the figures for the “Molecular Antimicrobial Susceptibility Result” value with E. coli (at sensitive breakpoint), in the assay on M. morganii (at sensitive breakpoint) and in the assay on S. aureus were “Resistant”, “Sensitive (Antimicrobial wells with pathogen load detected below the control wells (typically >2 cycle thresholds later) may be reported as Sensitive)” and “Resistant”, respectively.

The values are drawn from patent US20250290117A1, “MOLECULAR PHENOTYPIC ANTIMICROBIAL SUSCEPTIBILITY TESTING” (priority 2024, published 2025).
